Data published in patent US8709976B2, “Anthranilic diamide compositions for propagle coating” (E I du Pont de Nemours and Company, priority 2010, dated 2014).

Experiment: Corn greenhouse trial: uptake of Compound 2 into leaves from coated seeds
Conditions: corn (maize), in vivo
Experimental: Plant leaves were macerated using a Geno/Grinder 2000 bead beater homogenizer (SPEX CertiPrep, Metuchen, N.J., USA), and then acetonitrile (˜5 mL/g of leaf tissue) was added. The mixture was further shaken for 1 minute using the Geno/Grinder homogenizer, and then centrifuged. The acetonitrile extract supernatant was analyzed by high performance liquid chromatography with tandem mass spectrometry detection (HPLC/MS/MS) using a Waters (Milford, Mass. USA) Alliance HT2795 chromatograph and Zorbax SB C18 (2.1×50 mm, 5 microns) column eluted with mixtures of water and acetonitrile containing 0.1% (volume/volume) of formic acid, with detection by a Waters Quattro Micro API Mass Spectrometer using electrospray ionization (ESI+). Standard solutions of Compound 1 and Compound 2 were prepared by adding measured amounts of stock solutions of Compound 1 or Compound 2 in acetonitrile or tetrahydrofuran to acetonitrile extracts of leaves from plants grown from untreated seeds.
For corn and Compound 2, a 1:1 weight ratio of nonionic fatty alcohol ethoxylate with Compound 2 was prepared with each additive by mixing the appropriate amount of either 16.7 wt % or 20.0 wt % solution in water of the nonionic fatty alcohol ethoxylate with 1.0 g of Compound 2.
Into a FlackTek™ Max 100 disposable plastic cup were placed 35.0 grams (100 seeds) of corn seeds. […]

## CNC(=O)c1cc(Cl)cc(C)c1NC(=O)c1cc(Br)nn1-c1ncccc1Cl [Compound 2, 3-bromo-N-[4-chloro-2-methyl-6-[(methylamino)carbonyl]phenyl]-1-(3-chloro-2-pyridinyl)-1H-pyrazole-5-carboxamide]
  Uptake microgram/g of leaf: 0.42 microgram/g of leaf
